The numbers were not newly measured in article PMC9298350 (British Journal of Clinical Pharmacology, 2021), which cites them from elsewhere.

Molecules are shown by their SMILES.

In the case of `Cc1c(N(C)CS(=O)(=O)O)c(=O)n(-c2ccccc2)n1C` [metamizole, Metamizole], the “Frequency of metamizole-associated agranulocytosis” value is reported as 0.46–1.63 cases per 10^6 daily doses. In addition, the “Mortality associated with ingestion” value (review of the available literature) is 0.25 per 10^6 prescriptions.
